Assay results taken from patent US20050008896A1, “Luminous organic compound and manufacturing method” (Orient Chemical Ind., Ltd., priority 2003, published 2005).
Where two headings read alike, the source gives them in different places.

Tests used:
[1] = Fluorescence (photoluminescence) intensity in ethanol, fluorescence spectrophotometer RF-5300PC; assay type: physicochemical; settings: for Fluorescence Intensity / center of Luminous Wave: 25 mg of compound in 100 ml of ethanol; for Relative Value of Fluorescence Intensity, Relative Value (2) (Related to Metal Complex Intermediate 3): metal complex intermediate 3 regarded as 1.00
Method: Fluorescence intensity of each obtained compound was measured in order to evaluate fluorescence property.
A method of the evaluation is as follows. 25 mg of each compound was dissolved in 100 ml of ethanol respectively. The fluorescence intensity, photoluminescence intensity, was measured by a fluorescence spectrophotometer RF-5300PC that is available from Shimadzu Corporation. The measured results of the luminous organic compounds 1 to 9 and 11, the comparative compounds 1 to 3 and the metal complex intermediate 1 to 3 are indicated in Table 3. […] The relative value (2) of the fluorescence intensity indicates the value related to the fluorescence intensity of the metal complex intermediate 3 regarded as 1.00.

[2] = stood at room temperature overnight
Method: A method of measurement of the solubility is as follows. After the prescribed amount of the compound was added to each solvent, it was heated by water bath and irradiated supersonic wave for 1 hour. It was stood at room temperature overnight, and filtrated. Obtained residue was dried. Amount of insoluble residue was weighed, and solubility (w/v %) was determined.

[3] = comparative compound 3 regarded as 1.00

Row | Compound | Relative Value of Fluorescence Intensity, Relative Value (1) (Related to Comparative Compound 3) [1] | Fluorescence Intensity [1] | center of Luminous Wave [1] | Relative Value of Fluorescence Intensity, Relative Value (2) (Related to Metal Complex Intermediate 3) [1] | Solubility, Ethanol [2] | Solubility, Ethyl Acetate [2] | Solubility, Methyl Ethyl Ketone [2] | Solubility, Toluene [2] | Solubility, Xylene [2] | Relative Value of Fluorescence Intensity, Relative Value (1) (Related to Comparative Compound 3) [1, 3]
1 | C[N+](C)(C)CC[N+](C)(C)C.O=C(C=C([O-])C(F)(F)F)c1ccc2ccccc2c1.O=C(C=C([O-])C(F)(F)F)c1ccc2ccccc2c1.O=C(C=C([O-])C(F)(F)F)c1ccc2ccccc2c1.O=C(C=C([O-])C(F)(F)F)c1ccc2ccccc2c1.O=C(C=C([O-])C(F)(F)F)c1ccc2ccccc2c1.O=C(C=C([O-])C(F)(F)F)c1ccc2ccccc2c1.O=C(C=C([O-])C(F)(F)F)c1ccc2ccccc2c1.O=C(C=C([O-])C(F)(F)F)c1ccc2ccccc2c1.[Eu+3].[Eu+3] [Luminous Organic Compound 1] | 1.31 | 662 | (613 nm) | 1.34 | 0.20 w/v % | over 10.0 w/v % | over 10.0 w/v % | 0.52 w/v % | 0.10 w/v % | 
2 | C[N+](C)(C)CCCC[N+](C)(C)C.O=C(C=C([O-])C(F)(F)F)c1ccc2ccccc2c1.O=C(C=C([O-])C(F)(F)F)c1ccc2ccccc2c1.O=C(C=C([O-])C(F)(F)F)c1ccc2ccccc2c1.O=C(C=C([O-])C(F)(F)F)c1ccc2ccccc2c1.O=C(C=C([O-])C(F)(F)F)c1ccc2ccccc2c1.O=C(C=C([O-])C(F)(F)F)c1ccc2ccccc2c1.O=C(C=C([O-])C(F)(F)F)c1ccc2ccccc2c1.O=C(C=C([O-])C(F)(F)F)c1ccc2ccccc2c1.[Eu+3].[Eu+3] [Luminous Organic Compound 2] | 1.48 | 744 | (613 nm) | 1.50 | 0.19 w/v % | 1.54 w/v % | over 10.0 w/v % | 0.24 w/v % | 0.10 w/v % | 
3 | C[N+](C)(C)CCCCCC[N+](C)(C)C.O=C(C=C([O-])C(F)(F)F)c1ccc2ccccc2c1.O=C(C=C([O-])C(F)(F)F)c1ccc2ccccc2c1.O=C(C=C([O-])C(F)(F)F)c1ccc2ccccc2c1.O=C(C=C([O-])C(F)(F)F)c1ccc2ccccc2c1.O=C(C=C([O-])C(F)(F)F)c1ccc2ccccc2c1.O=C(C=C([O-])C(F)(F)F)c1ccc2ccccc2c1.O=C(C=C([O-])C(F)(F)F)c1ccc2ccccc2c1.O=C(C=C([O-])C(F)(F)F)c1ccc2ccccc2c1.[Eu+3].[Eu+3] [Luminous Organic Compound 3] | 1.63 | 822 | (613 nm) | 1.66 | 0.14 w/v % | 9.01 w/v % | over 10.0 w/v % | 0.31 w/v % | 0.18 w/v % | 
4 | C[N+](C)(C)c1ccc([N+](C)(C)C)cc1.O=C(C=C([O-])C(F)(F)F)c1ccc2ccccc2c1.O=C(C=C([O-])C(F)(F)F)c1ccc2ccccc2c1.O=C(C=C([O-])C(F)(F)F)c1ccc2ccccc2c1.O=C(C=C([O-])C(F)(F)F)c1ccc2ccccc2c1.O=C(C=C([O-])C(F)(F)F)c1ccc2ccccc2c1.O=C(C=C([O-])C(F)(F)F)c1ccc2ccccc2c1.O=C(C=C([O-])C(F)(F)F)c1ccc2ccccc2c1.O=C(C=C([O-])C(F)(F)F)c1ccc2ccccc2c1.[Eu+3].[Eu+3] [Luminous Organic Compound 4] | 1.52 | 766 | (613 nm) | 1.55 | 0.08 w/v % | over 10.0 w/v % | over 10.0 w/v % | 0.23 w/v % | 0.22 w/v % | 
5 | C[N+](C)(C)c1ccc(-c2ccc([N+](C)(C)C)cc2)cc1.O=C(C=C([O-])C(F)(F)F)c1ccc2ccccc2c1.O=C(C=C([O-])C(F)(F)F)c1ccc2ccccc2c1.O=C(C=C([O-])C(F)(F)F)c1ccc2ccccc2c1.O=C(C=C([O-])C(F)(F)F)c1ccc2ccccc2c1.O=C(C=C([O-])C(F)(F)F)c1ccc2ccccc2c1.O=C(C=C([O-])C(F)(F)F)c1ccc2ccccc2c1.O=C(C=C([O-])C(F)(F)F)c1ccc2ccccc2c1.O=C(C=C([O-])C(F)(F)F)c1ccc2ccccc2c1.[Eu+3].[Eu+3] [Luminous Organic Compound 5] | 1.28 | 644 |  | 1.30 | 0.37 w/v % | 3.46 w/v % | over 10.0 w/v % | 0.30 w/v % | 0.52 w/v % | 
6 | CCCC[N+](C)(C)CCCC[N+](C)(C)CCCC.O=C(C=C([O-])C(F)(F)F)c1ccc2ccccc2c1.O=C(C=C([O-])C(F)(F)F)c1ccc2ccccc2c1.O=C(C=C([O-])C(F)(F)F)c1ccc2ccccc2c1.O=C(C=C([O-])C(F)(F)F)c1ccc2ccccc2c1.O=C(C=C([O-])C(F)(F)F)c1ccc2ccccc2c1.O=C(C=C([O-])C(F)(F)F)c1ccc2ccccc2c1.O=C(C=C([O-])C(F)(F)F)c1ccc2ccccc2c1.O=C(C=C([O-])C(F)(F)F)c1ccc2ccccc2c1.[Eu+3].[Eu+3] [Luminous Organic Compound 6] | 1.51 | 758 | (613 nm) | 1.53 | 0.14 w/v % | over 10.0 w/v % | over 10.0 w/v % | 3.86 w/v % | 3.22 w/v % | 
7 | C[N+](C)(C)c1ccc(C(c2ccc([N+](C)(C)C)cc2)c2ccc([N+](C)(C)C)cc2)cc1.O=C(C=C([O-])C(F)(F)F)c1ccc2ccccc2c1.O=C(C=C([O-])C(F)(F)F)c1ccc2ccccc2c1.O=C(C=C([O-])C(F)(F)F)c1ccc2ccccc2c1.O=C(C=C([O-])C(F)(F)F)c1ccc2ccccc2c1.O=C(C=C([O-])C(F)(F)F)c1ccc2ccccc2c1.O=C(C=C([O-])C(F)(F)F)c1ccc2ccccc2c1.O=C(C=C([O-])C(F)(F)F)c1ccc2ccccc2c1.O=C(C=C([O-])C(F)(F)F)c1ccc2ccccc2c1.O=C(C=C([O-])C(F)(F)F)c1ccc2ccccc2c1.O=C(C=C([O-])C(F)(F)F)c1ccc2ccccc2c1.O=C(C=C([O-])C(F)(F)F)c1ccc2ccccc2c1.O=C(C=C([O-])C(F)(F)F)c1ccc2ccccc2c1.[Eu+3].[Eu+3].[Eu+3] [Luminous Organic Compound 7] |  | 835 | (613 nm) | 1.69 | 0.16 w/v % | 10.0 w/v % | over 10.0 w/v % | 0.14 w/v % | 0.16 w/v % | 1.66
8 | C[N+](C)(C)CCCC[N+](C)(C)C.O=C(C=C([O-])C(F)(F)F)c1ccc2ccccc2c1.O=C(C=C([O-])C(F)(F)F)c1ccc2ccccc2c1.O=C(C=C([O-])C(F)(F)F)c1ccc2ccccc2c1.O=C(C=C([O-])C(F)(F)F)c1ccc2ccccc2c1.O=C(C=C([O-])C(F)(F)F)c1ccc2ccccc2c1.O=C(C=C([O-])C(F)(F)F)c1ccc2ccccc2c1.O=C(C=C([O-])C(F)(F)F)c1ccc2ccccc2c1.O=C(C=C([O-])C(F)(F)F)c1ccc2ccccc2c1.[Tb+3].[Tb+3] [Luminous Organic Compound 10] |  |  |  |  | 0.062 w/v % | 1.21 w/v % | over 10.0 w/v % | 0.43 w/v % | 0.32 w/v % | 
9 | O=C(C=C([O-])C(F)(F)F)c1ccc2ccccc2c1.O=C(C=C([O-])C(F)(F)F)c1ccc2ccccc2c1.O=C(C=C([O-])C(F)(F)F)c1ccc2ccccc2c1.[Eu+3] [Metal Complex Intermediate 1] |  | 665 | (613 nm) | 1.35 |  |  |  |  |  | 1.32
10 | O=C(C=C([O-])C(F)(F)F)c1cccs1.O=C(C=C([O-])C(F)(F)F)c1cccs1.O=C(C=C([O-])C(F)(F)F)c1cccs1.[Eu+3] [Metal Complex Intermediate 2] |  | 566 | (613 nm) | 1.15 |  |  |  |  |  | 1.13
11 | O=C(C=C([O-])C(F)(F)F)c1ccccc1.O=C(C=C([O-])C(F)(F)F)c1ccccc1.O=C(C=C([O-])C(F)(F)F)c1ccccc1.[Eu+3] [Metal Complex Intermediate 3] |  | 493 | (613 nm) | (1.00) |  |  |  |  |  | 0.98
